Test results as given in a melting point compilation (Tetko et al.; mined from patent text by program, amines drawn as free bases though some values may be those of a salt).

Row | melting point [°C] | SMILES
1 | 59 to 61 | CCC(=O)NCC1CC1c1cccc2nc(C)sc12 (stereo unspecified)
2 | 45 to 46 | CCOC(=O)CCCOc1ccc(C23CC4CC(CC(C4)C2)C3)cc1
3 | 348 to 350 | O=C(O)c1ccc(-c2nn(-c3ccccc3C(=O)O)c3ccc([N+](=O)[O-])cc23)cc1
4 | 156 to 158 | Cc1c(C)c(N2CCN(c3ccc(CN)cc3)CC2)c(C)c2c1OC(C)(C)C2
5 | 88 to 90 | CN(C)CCNc1ccc(NCCCCN)c2c1C(=O)c1ccccc1C2=O
6 | 187 to 188 | COc1cc(CC(=O)Nc2cnn(Cc3c(C)noc3C)c2)cc(OC)c1O
7 | 137 to 138 | CN(C)C=Cc1ccc(-c2csc(-c3ccc(F)cc3)n2)cc1[N+](=O)[O-]
8 | 136 to 137 | COc1ccc(C(=O)N(C)C2N(C)C(c3ccc(F)cc3)=NC2(C(F)(F)F)C(F)(F)F)cc1 (stereo unspecified)
9 | 225 to 227 | CC(=O)N1CCC(CC(=O)c2ccc(Nc3ncnc4c3CCC4)cc2)CC1
10 | 200 | CCCC(=O)Nc1n[nH]c2cc(-c3ccncc3)ccc12
11 | 205 to 206 | COc1ccc(-c2c(/C=C\C(=O)O)cnn2C)cc1
12 | 90 to 91 | COC(=O)C1C(OC)=CCc2ccc(OC)cc21 (stereo unspecified)
13 | 160 | O=[N+]([O-])c1ccc(C2(Cn3cncn3)OCCO2)cc1
14 | 148 to 150 | Cc1cc(-n2cnn(CCC3CC3)c2=O)sc1C(=O)NCc1cccnc1
15 | 64 to 66 | CC(c1ccc(Cl)cc1)N1CCC2(CC1)Cc1ccccc1O2 (stereo unspecified)
16 | 170 to 172 | CC(C)(C)c1ccc(-c2ccc(C(CCC(=O)O)=NO)cc2)cc1
17 | 184 | CC(=O)Nc1ccc(C(=O)CBr)cc1F
18 | 143 | CN1C(=S)N(c2cc(Cl)cc(Cl)c2)C(O)C1O (stereo unspecified)
19 | 107 to 108 | CCC(O)(c1ccc(OCc2cccc(C)n2)cc1)c1cc(C)ccc1C (stereo unspecified)
20 | 126 to 128 | CNCC1(C)Cc2cc(NC)c3c(c2C(c2ccccc2)=N1)CC(C)(C)O3 (stereo unspecified)

Row | melting point [°C] | SMILES
21 | 191 to 193 | O=S1(=O)CCN2CCCC(c3ccc(Oc4ccc(C(F)(F)F)cc4)cc3)C2=N1 (stereo unspecified)
22 | 80 to 82.5 | CCOc1ccccc1O[C@@H](c1ccccc1)[C@@H](CO[Si](C)(C)C)OS(C)(=O)=O (racemic)
23 | 158 | CCOc1nn(C(=O)NS(=O)(=O)c2c(C)csc2C)c(=O)n1C
24 | 227 to 229 | COc1ccc(C(C)C)cc1-c1cc(-c2nnnn2C2CCCN(C(=O)OC(C)(C)C)C2)c(O)cc1O (stereo unspecified)
25 | 194 to 196 | O=c1ccn(CCO)c(C(O)c2cccs2)c1OCc1ccccc1 (stereo unspecified)
26 | 110 to 111 | CCNC(=O)n1ncc2ccc(OC(C)=O)c(CC3CO3)c21 (stereo unspecified)
27 | 137 to 139 | CNC(=O)c1c(SC)c2cc(OC)ccc2n1C
28 | 109 to 111 | CC1(C)COC(c2ccc3c(c2)COC3=O)=N1
29 | 118 to 120 | O=Cc1ccc(OCc2ccccc2)c(O)c1
30 | 183 to 185 | CCN(C(C)=O)c1ccc(O)cc1
31 | 210 to 211 | CSc1nn2c(N)cc(C(C)C)nc2c1S(=O)(=O)c1ccccc1
32 | 136 | COc1ccc(S(=O)(=O)N2CCC[C@H]2C(=O)N2CCN(C(=O)c3ccc(C=NN)cc3)CC2)c(OC)c1COc1cccc2c(C)cc(C)nc12
33 | 248 to 249 | CN(C)c1cncc(-c2nc(=O)c3ccccc3s2)n1
34 | 125 to 126 | COc1ccc(S(=O)(=O)N2CC(C)(C)CN(S(=O)(=O)c3ccc(OC)cc3)C2C(=O)NO)cc1
35 | 202 to 204 | CCC(=O)Nc1cnn2cnc3ccccc3c12
36 | 82 to 83 | CCOC(=O)c1ccc(N)c(Cl)c1
37 | 112 to 113 | CCOC(=O)c1c(C)nn(C)c1S(N)(=O)=O
38 | 158 | CCOc1cc(C(=O)N2CCc3cc(O)ccc3C2)cc(OCC)c1OCC
39 | 207 to 208 | COc1ccc(-c2cnc3[nH]cc(C(=O)C(C)(C)C)c3n2)cc1
40 | 124 | CC(=O)Nc1cccc2c1C(=O)OC2(C)C

The remaining lines, values behind:

Row | SMILES | melting point [°C]
41 | COc1ccc(-c2cc(CO)nn2-c2ccc(S(N)(=O)=O)cc2)cc1I | 196 to 198
42 | Nc1c([N+](=O)[O-])cnn1-c1c(Cl)cc(C(F)(F)F)c(Cl)c1Cl | 78 to 85
43 | O=C(O)CCCNS(=O)(=O)c1ccc(NC(=O)Nc2ccc(C(F)(F)F)cc2)cc1 | 172 to 175
44 | N#Cc1ccccc1OCCCCCC(=O)O | 77 to 80
45 | CCc1ccc2c(=O)c3ccccc3ccc2c1 | 62 to 64
46 | CC(C)=CCN1CCc2c(sc(N)c2C(=O)c2ccccc2)C1 | 76 to 78
47 | CS(=O)(=O)Nc1ccc(CC(NC(=O)C(c2ccccc2)c2ccccc2)c2ccccc2)cc1 (stereo unspecified) | 200 to 202
48 | COC(=O)C1=NNC(C)=C(C(=O)OC)C1c1ccc(C)cc1 (stereo unspecified) | 180
49 | COC(=O)c1ccc2oc(CCCc3cc4cc(C(=O)OC)ccc4o3)cc2c1 | 87 to 88
50 | O=C(NCc1ccc(C(F)(F)F)c(F)c1)Nc1cccc2[nH]ccc12 | 198
51 | N#Cc1ccc(CCC(O)C2CC2)cc1 (stereo unspecified) | 70 to 71
52 | CN(c1cc2occc(=O)c2cc1Oc1ccccc1)S(C)(=O)=O | 187 to 189
53 | O=C(Nc1ccc(C(=O)N2CCC(O)c3ccccc32)cc1)c1cc(Cl)cc(Cl)c1 (stereo unspecified) | 215 to 217
54 | Cc1nnc2n1-c1sc(CCc3ccc(-c4ccccc4)cc3)cc1C(c1ccccc1Cl)=NC2 | 163 to 165
55 | Cc1nnc2n1-c1ccc([N+](=O)[O-])cc1C(c1ccccc1Cl)=NC2(C)C | 283
56 | COc1ncnc(OC)c1NC(=O)CCl | 193 to 195
57 | Fc1ccccc1Cn1cnc2c(NC3CC3)nc(C(F)(F)F)nc21 | 118 to 119
58 | O=C(NNC(=O)c1ccnc2[nH]ccc12)OCc1ccccc1 | 203 to 204
59 | CC(=O)Nc1ccc(-c2cnc3c(c2)N(Cc2cc(Cl)ccc2C(F)(F)F)CCN3)cc1 | 244
60 | CCn1nc(-c2ccccc2)c(C(C)=O)c(Nc2cccc(C(=O)O)c2Cl)c1=O | 255 to 256
61 | C=CCN1C2CCC3C1CCC2N3C(c1ccc(C(=O)N2CCCC2)cc1)c1cccc(OC)c1 (stereo unspecified) | 126 to 128

Row | SMILES | melting point [°C]
62 | CN(C)Cc1ccc(CSCCNc2ncc(Cc3cccnc3)c(=O)[nH]2)cc1 | 124 to 126
63 | CC(C)n1c(CO)c(-c2ccc(F)cc2)c(-c2ccccc2)c1C(=O)NCCc1cccnc1 | 167 to 169
64 | Nc1ncnc2c1ncn2C1CCC(O)C1O (stereo unspecified) | 201 to 202
65 | O=c1[nH]sc2c1c(=O)c1cc(F)c(F)c(F)c1n2C1CC1 | 243 to 245
66 | N#CCC(=O)NCCCNC(=O)CC#N | 146
67 | CN(CC(=O)O)C(=O)c1cccc2c(Br)cccc12 | 205
68 | Cc1nn(-c2cccnc2)cc1I | 131
69 | NC(=S)Nc1ccccc1O | 161
70 | CCC(=O)Oc1ccc2c(c1)CCC(CN1CCC(O)(c3ccccc3)CC1)C2=O (stereo unspecified) | 170 to 172
71 | O=C1N(c2cc(Cl)cc(Cl)c2)C(=O)C2(Cc3ccc(-c4cccnc4)cc3)CCCCN12 (stereo unspecified) | 276
72 | OCC1c2cc(Cl)ccc2Oc2ccc(Cl)cc21 | 134 to 136
73 | COc1ncncc1NS(=O)(=O)c1cccc(Cl)c1Cl | 204 to 211
74 | Oc1ccc2c(c1)nc(NC1CCN(CCNc3ncccn3)CC1)n2Cc1ccc(F)cc1 | 194
75 | CCSC1(S)CCC2C3CCC4=CC(=O)C=CC4(C)C3(F)C(O)CC21C (stereo unspecified) | 239 to 242
76 | COc1ccc2c3c1OC1C(=O)CC(C)C4C(C2)N(C#N)CCC314 (stereo unspecified) | 237 to 241
77 | CC(=O)NCC(NC(C)=O)c1ccccc1 (stereo unspecified) | 155 to 156
78 | CCCCc1sc2ccccc2c1-c1ccc(-c2ccc(OC(C(=O)O)c3ccccc3)cc2)cc1 (stereo unspecified) | 157 to 159
79 | CCNS(=O)(=O)CC(=O)C1=C(C)NC(C)=C(C(=O)OC(C)C)C1c1cccc([N+](=O)[O-])c1 (stereo unspecified) | 140 to 142
80 | C=CCNc1ccc(N(CC=C)CC=C)cc1[N+](=O)[O-] | 131 to 140
81 | CCOc1cc2ncc(C#N)c(Nc3ccc(F)cc3)c2cc1OCC | 177 to 181
82 | O=c1c2cc(F)c(N3CCCC3)nc2n(-c2ccc(F)cc2)c(=O)n1O | 172 to 174

Row | SMILES | melting point [°C]
83 | O=C(Nc1ccc(C(F)(F)F)cc1)NC1CCN(C(=O)Cc2c[nH]cn2)CC1 | 121 to 124
84 | C1=C(c2c[nH]c3ccccc23)CCN(CC2COc3ccc4c(c3O2)CCO4)C1 (stereo unspecified) | 207 to 209
85 | COC(=O)[C@@H]1C[C@H](Oc2cc(-c3nc(C(C)C)cs3)nc3c(C)c(OC)ccc23)C[C@H]1C(=O)O | 135
86 | CCCC1=C(C#N)C(c2ccccc2Cl)c2c(n[nH]c2C(C)(C)C)N1 (stereo unspecified) | > 270
87 | CCCn1nc(C2CC2)c(C(=O)OCC)c1Cc1ccc(-c2ccccc2S(N)(=O)=O)cc1 | 70 to 77
88 | CCOC(=O)c1c(-c2ccncc2)[nH]c(-c2ccncc2)c1-c1ccccc1 | 99 to 100
89 | COc1cc2c(cc1-c1nc3cc(Cl)ccc3o1)oc1ccccc12 | 191 to 193
90 | O=C(O)C(=Cc1ccco1)SSC(=Cc1ccco1)C(=O)O | 215
91 | CCn1c(=O)c2[nH]c(/C=C/c3ccc(OC)c(OC)c3)nc2n(CC)c1=O | 208 to 211
92 | CS(=O)(=O)Oc1ccc([N+](=O)[O-])c(OCCBr)c1 | 96 to 98
93 | O=C(O)c1cnn(CC(F)(F)F)c1 | 160 to 162
94 | CNc1nc(Nc2ccc(CNC(=O)OC(C)(C)C)cc2)ncc1[N+](=O)[O-] | 260
95 | COC(=O)CC1(C)CCc2cc(C#N)ccc2C1=O (stereo unspecified) | 117
96 | CC(=O)NC1CCN(CCC2CCOc3ccccc32)CC1 (stereo unspecified) | 126 to 128
97 | CCCn1cc(C(=O)O)c(=O)c2cnc(N3CCNCC3)nc21 | 259 to 261
98 | c1cc(CCCn2ccnc2)cc(OCc2ccc3oc(-c4cccs4)nc3c2)c1 | 86 to 87
99 | CS(=O)(=O)c1ccc(C(O)C(CF)N=[N+]=[N-])cc1 (stereo unspecified) | 121 to 123
100 | Cc1c(C)c(Cl)c2ccccc2c1Cl | 142
101 | NC(Cc1c[nH]c2c(Cl)cccc12)C(=O)O (stereo unspecified) | 236 to 239
